Tests used:
[1] = Cytotoxicity in HepG2 cells, Resazurin viability assay; conditions: human, HepG2 cells, HepG2 4 days CC50 (μM), incubated for 4 days, Resazurin assay
HBV [2] = assay: Anti-HBV activity, HepG2.117 inducibly HBV producing cell line (Tet-off), intracellular HBV DNA by realtime PCR; assay type: cell-based; conditions: Hepatitis B virus, HepG2.117, 72 h, HepG2.117 cells, 3 days of treatment, intracellular HBV DNA; read-out: HepG2 117 EC50
HBV [3] = assay: Anti-HBV activity, HepG2.2.15 stable transfected cell line, HBV DNA from secreted virions by realtime PCR; assay type: cell-based; conditions: Hepatitis B virus, HepG2.2.15, 144 h, HepG2.2.15 cells, 6 days of treatment, HBV DNA from secreted virions; read-out: HepG2 2.15 EC50

| SMILES | CC50 at 4 days [1] [µM] | EC50 (HBV [2]) [nM] | EC50 (HBV [3]) [nM] |
| --- | --- | --- | --- |
| Cc1c(S(=O)(=O)N[C@H](C)C(F)(F)F)cc(C(=O)Nc2ccc(F)c(Cl)c2F)n1C [Compound 143, N-(3-Chloro-2,4-difluorophenyl)-1,5-dimethyl-4-{[(1R)-2,2,2-trifluoro-1-methylethyl]sulfamoyl}-1H-pyrrole-2-carboxamide] | > 25 | 150 | 50 |
| C[C@H](CO)NS(=O)(=O)c1cc(C(=O)Nc2ccc(F)c(C(F)(F)F)c2)n(C)c1 [Compound 41, N-[4-fluoro-3-(trifluoromethyl)phenyl]-4-[[(1R)-2-hydroxy-1-methyl-ethyl]sulfamoyl]-1-methyl-pyrrole-2-carboxamide] | > 25 | 330 | 520 |
| Cc1c(S(=O)(=O)NC2(C)COC2)cn(C)c1C(=O)Nc1ccc(F)c(C(F)(F)F)c1 [Compound 179, N-[4-Fluoro-3-(trifluoromethyl)phenyl]-1,3-dimethyl-4-[(3-methyloxetan-3-yl)sulfamoyl]-1H-pyrrole-2-carboxamide] | > 25 | 270 | 300 |
| Cn1cc(S(=O)(=O)NC(C)(C)C)cc1C(=O)Nc1ccc(F)c(F)c1 [Compound 19, 4-(tert-butylsulfamoyl)-N-(3,4-difluorophenyl)-1-methyl-pyrrole-2-carboxamide] | > 25 | 80 | 60 |
| C[C@@H](NS(=O)(=O)c1cn(C)c(C(=O)Nc2ccc(F)c(F)c2F)c1F)C(F)(F)F [Compound 183, 3-Fluoro-1-methyl-4-{[(1R)-2,2,2-trifluoro-1-methylethyl]sulfamoyl}-N-(2,3,4-trifluorophenyl)-1H-pyrrole-2-carboxamide] | > 25 | 10 | 20 |
| [2H]c1cc(F)c(C)c([2H])c1NC(=O)c1cc(S(=O)(=O)NC(C)(C)C)cn1C [Compound 67, 4-(tert-butylsulfamoyl)-N-(2,6-dideuterio-4-fluoro-3-methyl-phenyl)-1-methyl-pyrrole-2-carboxamide] | > 25 | 30 | 20 |
| Cn1cc(S(=O)(=O)NC2(C(F)(F)F)CC2)c(Cl)c1C(=O)Nc1ccc(F)c(C#N)c1 [Compound 271, 3-Chloro-N-(3-cyano-4-fluorophenyl)-1-methyl-4-{[1-(trifluoro-methyl)cyclopropyl]sulfamoyl}-1H-pyrrole-2-carboxamide] | > 25 | 20 | 9 |
| Cn1cc(S(=O)(=O)NC(C)(C)CF)cc1C(=O)Nc1cc(F)c(F)c(Cl)c1 [Compound 207, N-(3-chloro-4,5-difluoro-phenyl)-4-[(2-fluoro-1,1-dimethyl-ethyl)sulfamoyl]-1-methyl-pyrrole-2-carboxamide] | > 25 | 140 | 50 |
| Cc1cc(F)cc(NC(=O)c2cc(S(=O)(=O)N[C@H]3CCOC3)cn2C)c1 [Compound 32, N-(3-fluoro-5-methyl-phenyl)-1-methyl-4-[[(3S)-tetrahydrofuran-3-yl]-sulfamoyl]pyrrole-2-carboxamide] | > 25 | 340 | 180 |
| Cc1c(S(=O)(=O)N[C@H](C)C(F)(F)F)cn(C)c1C(=O)Nc1ccc(F)c(F)c1 [Compound 144, N-(3,4-Difluorophenyl)-1,3-dimethyl-4-{[(1R)-2,2,2-trifluoro-1-methylethyl]sulfamoyl}-1H-pyrrole-2-carboxamide] | > 25 | 70 | 50 |
| Cn1cc(S(=O)(=O)NC2(C)COC2)cc1C(=O)Nc1ccc(F)c(OC(F)(F)F)c1 [Compound 86, N-[4-Fluoro-3-(trifluoromethoxy)phenyl]-1-methyl-4-[(3-methyloxetan-3-yl)sulfamoyl]-1H-pyrrole-2-carboxamide] | > 25 | 350 | 370 |

Reference: patent publication US9884818B2, “Sulphamoylpyrrolamide derivatives and the use thereof as medicaments for the treatment of hepatitis B” (Janssen Sciences Ireland UC, priority 2013, dated 2018)
